Experimental data as given in patent US20230241126A1 (priority 2022, published 2023).

Columns and labels:
SARS-CoV-2 = type: cell-based; details: 1-hour contact time at 22 ± 2° C.; versus virus control titer 5.0

CCO [Ethanol]
LRV (log reduction value) (SARS-CoV-2): >4.3
Toxicity (highest dilution of the endpoint titer where full (80-100%) cytotoxicity was observed) (Vero 76 cells): None
